# Active and inactive are the calls of the source.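 How the source made its calls: active means lipid-stain IC50 at or below a set limit, with nuclear-stain toxicity IC50 at least five times higher; inactive means the rest.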
# Columns and labels:
# TAG = TAG lipid buildup inhibition with viability readout – cell-based, panel, Nile Red and DAPI fluorescence, H9c2, dose response (AID 651630); conditions: H9c2 cells, Nile Red TAG fluorescence, oleic acid;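 further: cells exposed to compound overnight before fixation and staining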
# DAPI = assay: as above; conditions: H9c2 cells, DAPI nuclear fluorescence (cytotoxicity counter-readout), oleic acid
Compound,IC50 (TAG; run 1) [µM],IC50 (TAG; run 2) [µM],IC50 cytotoxicity (DAPI nuclear signal decrease) (DAPI; mean of runs),IC50 cytotoxicity (DAPI nuclear signal decrease) (DAPI; run 1) [µM],IC50 cytotoxicity (DAPI nuclear signal decrease) (DAPI; run 2) [µM],IC50 (TAG; mean of runs)
CC1(C(=O)NCc2ccco2)Cc2c(-c3ccc4c(c3)OCO4)ccnc2O1 (stereo unspecified),17.1,> 25,> 25 µM (inactive),> 25,> 25,–
Cc1ccc(C(=O)Nc2cc(C)c(OCC(=O)N3CCOCC3)c(C)c2)cc1,> 25,> 25,> 25 µM (inactive),> 25,> 25,> 25 µM (inactive)
CCOC(=O)c1cc(-c2ccncc2)nc2c1c(C)nn2-c1ccccn1,14.1,> 25,> 25 µM (inactive),> 25,> 25,–
CCN(CC)CCC(c1ccc2c(c1)OCO2)c1c(OC)cc(OC)c2c(-c3ccccc3)cc(=O)oc12 (stereo unspecified),> 25,> 25,> 25 µM (inactive),> 25,> 25,> 25 µM (inactive)
CCCN(CCC)CCNC(=O)c1cc2c(=O)n(CC)c3ccccc3c2s1,> 25,> 25,> 25 µM (inactive),> 25,> 25,> 25 µM (inactive)
O=[N+]([O-])c1ccc(Nc2nc(NC3CCCCC3)nc(N3CCCC3)n2)cc1,> 25,11.1,> 25 µM (inactive),> 25,> 25,–
C[C@H]1CN([C@@H](C)CO)C(=O)c2cc(NC(=O)Nc3cccc4ccccc34)ccc2O[C@@H]1CN(C)Cc1ccc(-c2ccccc2)cc1,20.2,> 25,> 25 µM (inactive),> 25,> 25,–
CCC(=O)Nc1ccc(-c2nnc(-c3ccccc3)o2)cc1,> 25,> 25,> 25 µM (inactive),> 25,> 25,> 25 µM (inactive)
CCOc1ccc(OCC)c(NC(=O)CN(c2ccc(C)cc2)S(=O)(=O)c2c(C)noc2C)c1,17.1,22,> 25 µM (inactive),> 25,> 25,19.6 µM (inactive)
O=C(Cc1n[nH]c(=O)c2ccccc12)OCC(=O)c1ccc2c(c1)OCCO2,> 25,> 25,> 25 µM (inactive),> 25,> 25,> 25 µM (inactive)
Nc1ccc(C#Cc2c(-c3ccsc3)oc3ccc(N4CCOCC4)cc23)cc1,10.8,11.9,> 25 µM (inactive),> 25,> 25,11.4 µM
COc1ccc2[nH]c3c(c2c1)CCN1C(=O)C(CC(=O)NCc2cccc(C(F)(F)F)c2)C[C@H](C(=O)N2CCCCC2)[C@@]31CCc1ccccc1 (stereo partly specified),14.8,5.34,> 25 µM (inactive),> 25,> 25,10 µM
CC1CCN(c2cc(N3CCC(C)CC3)c([N+](=O)[O-])cc2/C=C(\C#N)c2nn(-c3ccccc3)c(N)c2C#N)CC1,> 25,> 25,> 25 µM (inactive),> 25,> 25,> 25 µM (inactive)
Cc1c(C#N)c(O)n(CCO)c(=O)c1N=Nc1ccc2c(c1)COC2=O,14.3,18.6,19.9 µM (inactive),24.4,15.3,16.5 µM (inactive)
COc1cc(Cn2c(-c3nonc3N)nc3ccccc32)ccc1C,24.4,> 25,> 25 µM (inactive),> 25,> 25,–
NC(N)=Nc1ccc(C=C2C=Cc3ccccc32)cc1,12.6,11.1,22.8 µM (inactive),21.2,24.5,11.8 µM
O=C1C=CC(O)C2(CO)OC12 (stereo unspecified),14.4,> 25,> 25 µM (inactive),> 25,> 25,–
